# Measurements from patent EP0569083A1, “New quinazolines as inhibitors of HIV reverse transcriptase” (priority 1992, dated 1993).
# Where two headings read alike, the source gives them in different places.
# How the values were obtained:
# A17 RT = target: T1, A17 RT (Human immunodeficiency virus type 1 group M subtype B, UniProt P04585, K690N/Y768C); test: Reverse transcriptase assay, double (DBL) mutant; type: biochemical, HIV
# T1 construct: A17 RT was employed in the assay; made in house; host or cells: bacteria
# Procedure: (§1) The assay measures the incorporation of tritiated deoxyguanosine monophosphate by recombinant HIV reverse transcriptase (HIV RTR) (or other RT) into acid-precipitable cDNA at the Km values of dGTP and poly r(C)·oligo d(G)₁₂₋₁₈.
# (§2) The assays were carried out in 55 mM Tris (pH 8.2)-30 mM KCl-30 mM MgCl₂-1 mM dithiothreitol-20 µg of rC:dG₁₂₋₁₈ (Pharmacia) per ml-8 µM [³H]dGTP (New England Nuclear)-0.01% Triton X-100-50 µM ethylene glycol-bis(β-amino-ethyl ether)-N,N,N',N'-tetraacetic acid (EGTA)-1 mg of bovine serum albumin per ml. After 60 min of incubation at 37°C, acid-precipitable material was collected onto glass fiber filters by using a semiautomatic cell harvester. Bacterial cell extracts containing RT were diluted to within the linear range of the assay, and activity was determined in the presence and absence of inhibitor. Purified HIV-1 RT heterodimer produced in E. coli also served as a control.
# For the double (DBL) mutant assay, A17 RT was employed in the assay. A17 RT is resistant to various aminopyridones, as described in Nunberg, J.H. et al., J. Virol. 65, 4887 (1991).
# [1] = target: T2, recombinant HIV reverse transcriptase (HIV RTR) (Human immunodeficiency virus type 1 group M subtype B, UniProt P04585); test: Reverse transcriptase assay (incorporation of tritiated dGMP into acid-precipitable cDNA); type: biochemical
# T2 construct: recombinant HIV reverse transcriptase (HIV RTR); made in house; host or cells: bacteria (E. coli is named only for the purified heterodimer control)
# Procedure: as §1, §2
# [2] = recombinant HIV RT, 60 min at 37°C, read-out: IC50
smiles,measurement,setting,value
"O=C1Nc2ccc(Cl)cc2[C@@](C#Cc2ccccn2)(C2CC2)N1 [Compound 26, 6-chloro-4(S)-cyclopropyl-3,4-dihydro-4-((2-pyridyl)ethynyl)quinazolin-2(1H)-one]",IC50,A17 RT,400 nM
same,IC50,[1],7 nM
"CN(C)CC#CC1(C2CC2)c2cc(Cl)ccc2NC(=O)N1C (stereo not drawn) [Compound 9, 6-chloro-4-cyclopropyl-3,4-dihydro-3-methyl-4-(3-(N,N-dimethylamino)-1-propynyl)quinazolin-2(1H)-one]",IC50,A17 RT,273 nM
same,IC50,[1],54 nM
"O=C1Nc2ccc(Cl)cc2C(C#Cc2ccncc2)(C2CC2)N1 (stereo not drawn) [Compound 13, 6-chloro-4-cyclopropyl-3,4-dihydro-4-((4-pyridyl)ethynyl)quinazolin-2(1H)-one]",IC50,A17 RT,3000 nM
same,IC50,[1],470 nM
"O=C1Nc2ccc(Cl)cc2C(C#Cc2ccccc2[N+](=O)[O-])(C2CC2)N1 (stereo not drawn) [Compound 25, 6-Chloro-4-cyclopropyl-3,4-dihydro-4-(2-nitrophenylethynyl)quinazolin-2(1H)-one]",IC50,A17 RT,390 nM
same,IC50,[1],10.5 nM
"CN1C(=O)Nc2ccc(Cl)cc2C1(C#Cc1ccccn1)C1CC1 (stereo not drawn) [Compound 10, 6-chloro-4-cyclopropyl-3,4-dihydro-3-methyl-4-((2-pyridyl)ethynyl)quinazolin-2(1H)-one]",IC50,A17 RT,87 nM
same,IC50,[1],21 nM
"CN1C(=O)Nc2ccc(Cl)cc2C1(C#CCn1ccnc1)C1CC1 (stereo not drawn) [Compound 20, 6-chloro-4-cyclopropyl-3,4-dihydro-4-(3-(1-imidazolyl)-1-propynyl)-3-methylquinazolin-2(1H)-one]",IC50,A17 RT,960 nM
same,IC50,[1],620 nM
"CN1C(=O)Nc2ccc(Cl)cc2C1(C#CCN1CCOCC1)C1CC1 (stereo not drawn) [Compound 19, 6-chloro-4-cyclopropyl-3,4-dihydro-3-methyl-4-(3-(4-morpholinyl)-1-propynyl)quinazolin-2(1H)-one]",IC50,A17 RT,22000 nM
same,IC50,[1],1000 nM
"O=C1Nc2ccc(Cl)cc2C(C#Cc2ncccn2)(C2CC2)N1 (stereo not drawn) [Compound 15, 6-chloro-4-cyclopropyl-3,4-dihydro-4-((2-pyrimidinyl)ethynyl)quinazolin-2(1H)-one]",IC50,A17 RT,8800 nM
same,IC50,[1]; [2],130 nM
"CN1C(=O)Nc2ccc(Cl)cc2C1(C#CCOc1ccncc1)C1CC1 (stereo not drawn) [Compound 17, 6-chloro-4-cyclopropyl-3,4-dihydro-3-methyl-4-(3-(4-pyridyloxy)-1-propynyl)quinazolin-2(1H)-one]",IC50,A17 RT,3900 nM
same,IC50,[1],165 nM
"CN1C(=O)Nc2ccc(Cl)cc2C1(C#CCCCl)C1CC1 (stereo not drawn) [Compound 6, 6-chloro-4-(4-chloro-1-butynyl)-4-cyclopropyl-3,4-dihydro-3-methylquinazolin-2(1H)-one]",IC50,A17 RT,250 nM
same,IC50,[1],7 nM
"COCC#CC1(C2CC2)c2cc(Cl)ccc2NC(=O)N1C (stereo not drawn) [Compound 2, 6-chloro-4-cyclopropyl-3,4-dihydro-3-methyl-4-(3-methoxy-1-propynyl)quinazolin-2(1H)-one]",IC50,A17 RT,700 nM
same,IC50,[1],13 nM
"O=C1Nc2ccc(Cl)cc2C(C#CCCF)(C2CC2)N1 (stereo not drawn) [Compound 5, 6-chloro-4-cyclopropyl-4-(4-fluoro-1-butynyl)-3,4-dihydroquinazolin-2(1H)-one]",IC50,A17 RT,3500 nM
same,IC50,[1],31 nM
"O=C1Nc2ccc(Cl)cc2C(C#Cc2cncnc2)(C2CC2)N1 (stereo not drawn) [Compound 14, 6-chloro-4-cyclopropyl-3,4-dihydro-4-((5-pyrimidinyl)ethynyl)quinazolin-2(1H)-one]",IC50,A17 RT,3000 nM
same,IC50,[1],1750 nM
"CN1C(=O)Nc2ccc(Cl)cc2C1(C#CCOc1cc[n+]([O-])cc1)C1CC1 (stereo not drawn) [Compound 18, 6-chloro-4-cyclopropyl-3,4-dihydro-3-methyl-4-(3-(4-(N-oxopyridyl)oxy)-1-propynyl)quinazolin-2(1H)-one]",IC50,"A17 RT; A17 RT (double mutant, resistant to aminopyridones), read-out: IC50DBL Mutant",65000 nM
same,IC50,[1]; [2],9400 nM
"O=C1Nc2ccc(Cl)cc2C(C#Cc2cccnc2)(C2CC2)N1 (stereo not drawn) [Compound 12, 6-chloro-4-cyclopropyl-3,4-dihydro-4-((3-pyridyl)ethynyl)quinazolin-2(1H)-one]",IC50,A17 RT,310 nM
same,IC50,[1],84 nM
"O=C1Nc2ccc(Cl)cc2C(C#Cc2ccccc2)(C2CC2)N1 (stereo not drawn) [Compound 23, 6-chloro-4-cyclopropyl-3,4-dihydro-4-(phenylethynyl)quinazolin-2(1H)-one]",IC50,A17 RT,135 nM
same,IC50,[1],6.1 nM
"O=C1Nc2ccc(Cl)cc2C(C#Cc2cnccn2)(C2CC2)N1 (stereo not drawn) [Compound 16, 6-chloro-4-cyclopropyl-3,4-dihydro-4-((2-pyrazinyl)ethynyl)quinazolin-2(1H)-one]",IC50,A17 RT,9000 nM
same,IC50,[1]; [2],270 nM
"CN1C(=O)Nc2ccc(Cl)cc2C1(C#CCCF)C1CC1 (stereo not drawn) [Compound 4, 6-chloro-4-cyclopropyl-4-(4-fluoro-1-butynyl)-3,4-dihydro-3-methylquinazolin-2(1H)-one]",IC50,A17 RT,230 nM
same,IC50,[1],7 nM
"CN1C(=O)Nc2ccc(Cl)cc2C1(C#CCN=[N+]=[N-])C1CC1 (stereo not drawn) [Compound 7, 4-(3-azido-1-propynyl)-6-chloro-4-cyclopropyl-3,4-dihydro-3-methylquinazolin-2(1H)-one]",IC50,A17 RT,1750 nM
same,IC50,[1],20 nM
"CN1C(=O)Nc2ccc(Cl)cc2C1(C#CCOCC(F)(F)F)C1CC1 (stereo not drawn) [Compound 3, 6-chloro-4-cyclopropyl-3,4-dihydro-3-methyl-4-(3-(2,2,2-trifluoroethoxy)-1-propynyl)quinazolin-2(1H)-one]",IC50,A17 RT,2600 nM
same,IC50,[1],19 nM
"CN1C(=O)Nc2ccc(Cl)cc2C1(C#CCOc1ccccn1)C1CC1 (stereo not drawn) [Compound 24, 6-Chloro-4-cyclopropyl-3,4-dihydro-3-methyl-4-(3-(2-pyridyloxy)-1-propynyl)quinazolin-2(1H)-one]",IC50,A17 RT,4900 nM
same,IC50,[1],125 nM
"O=C1Nc2ccc(Cl)cc2C(C#Cc2ccccn2)(C2CC2)N1 (racemic) [Compound 11, 6-chloro-4-cyclopropyl-3,4-dihydro-4-((2-pyridyl)ethynyl)quinazolin-2(1H)-one]",IC50,A17 RT,635 nM
same,IC50,[1],19 nM
"COCC#CC1(C2CC2)NC(=O)Nc2ccc(Cl)cc21 (stereo not drawn) [Compound 1, 6-chloro-4-cyclopropyl-3,4-dihydro-4-(3-methoxy-1-propynyl)quinazolin-2(1H)-one]",IC50,A17 RT,7300 nM
same,IC50,[1],49 nM
"CN1C(=O)Nc2ccc(Cl)cc2C1(C#CCO)C1CC1 (stereo not drawn) [Compound 22, 6-Chloro-4-cyclopropyl-3,4-dihydro-4-(3-hydroxy-1-propynyl)-3-methylquinazolin-2(1H)-one]",IC50,[1],255 nM
"CN1C(=O)Nc2ccc(Cl)cc2C1(C#CCF)C1CC1 (stereo not drawn) [Compound 8, 6-chloro-4-cyclopropyl-4-(3-fluoro-1-propynyl)-3,4-dihydro-3-methylquinazolin-2(1H)-one]",IC50,A17 RT,2900 nM
same,IC50,[1],24 nM
"C=CC#CC1(C2CC2)c2cc(Cl)ccc2NC(=O)N1C (stereo not drawn) [Compound 21, 4-(3-buten-1-ynyl)-6-chloro-4-cyclopropyl-3,4-dihydro-3-methylquinazolin-2(1H)-one]",IC50,A17 RT,248 nM
same,IC50,[1],4.3 nM
